Source: patent publication US9814699B2, “Chemical compounds” (Janssen Pharmaceuticals, Inc., priority 2009, dated 2017)

Assays:
[1] = system: HCV genotype 1a subgenomic replicon; experiment: HCV replicon assay, genotype 1a subgenomic replicon (luciferase); assay type: cell-based; conditions: Hepatitis C virus; genotype 1a replicon stable cell line, luciferase activity measured 48 hours later; read-out: Replicon 1A pEC50 (converted)
Experimental: (§1) Protocol for Testing and Data Analysis of Compounds in the HCV Replicon Assay
(§2) Compounds were assayed for activity against HCV using the genotype 1a and 1b subgenomic replicon model systems. Stable cell lines bearing the genotype 1a and 1b replicons were used for screening of compounds. Both replicons are bicistronic and contain the firefly luciferase gene. The ET cell line is stably transfected with RNA transcripts harboring a I389luc-ubi-neo/NS3-3′/ET replicon with firefly luciferase-ubiquitin-neomycin phosphotransferase fusion protein and EMCV-IRES driven NS3-5B polyprotein containing the cell culture adaptive mutations (E1202G; T1280I; K1846T) (Krieger at al, 2001 and unpublished). The genotype 1a replicon is a stable cell line licensed from Apath LLC, modified to contain the firefly luciferase gene. The cells were grown in DMEM, supplemented with 10% fetal calf serum, 2 mM Glutamine, Penicillin (100 IU/mL)/Streptomycin (100 μg/mL), 1× nonessential amino acids, and 250-500 μg/mL G418 (“Geneticin”). They were all available through Life Technologies (Bethesda, Md.). The cells were plated at 5×10^3 cells/well in 384 well plates containing compounds. The final concentration of compounds ranged between 0.03 pM to 50 μm and the final DMSO concentration of 0.5-1%.
(§3) Luciferase activity was measured 48 hours later by adding a Steady glo reagent (Promega, Madison, Wis.). Percent inhibition of replication data was plotted relative to no compound control. Under the same condition, cytotoxicity of the compounds was determined using cell titer glo (Promega, Madison, Ws). EC50s were determined from an 11 point dose response curve using 3-4-fold serial dilution for each compound, which spans a concentration range >1000 fold. The level of inhibition for each compound was determined with Activity Base or with BioAssay plus the Excel XC50 module. Percent inhibition was determined with the following equation where the cross-talk corrected value is the value from the test well, the compound positive control mean is the average value of the wells with no compound present, and the DMSO negative control mean is the average value of the wells with DMSO but no cells present.
(§4) [formula] These normalized values are exported to EC50 where they are plotted against the molar compound concentrations using the standard four parameter logistic equation: […]

[2] = system: HCV genotype 1b subgenomic replicon; experiment: HCV replicon assay, genotype 1b subgenomic replicon (ET cell line, luciferase); assay type: cell-based; conditions: Hepatitis C virus; genotype 1b replicon ET cell line, luciferase activity measured 48 hours later; read-out: Replicon 1B pEC50 (converted)
Experimental: as §1, §2, §3, §4

| SMILES | EC50 [1] | EC50 [2] |
| --- | --- | --- |
| COC(=O)N[C@H](C(=O)N1CCC[C@H]1c1nc(-c2ccc(-c3ccc(-c4c[nH]c([C@@H]5CC6(CN5C(=O)[C@@H](NC(=O)OC)C(C)C)SCCS6)n4)cc3)cc2)c[nH]1)C(C)C [Example 12, methyl [(1S)-2-methyl-1-({(2S)-2-[4-(4′-{2-[(8S)-7-((2S)-3-methyl-2-{[(methyloxy)carbonyl]amino}butanoyl)-1,4-dithia-7-azaspiro[4.4]non-8-yl]-1H-imidazol-4-yl}-4-biphenylyl)-1H-imidazol-2-yl]-1-pyrrolidinyl}carbonyl)propyl]carbamate] | 79.4 pM | 3.98 pM |
| CC[C@H](NC(=O)OC)C(=O)N1CC2(C[C@H]1c1nc(-c3ccc(-c4ccc(-c5c[nH]c([C@@H]6CCCN6C(=O)[C@@H](NC(=O)OC)C(C)C)n5)cc4)cc3)c[nH]1)SCCS2 [Example 13, methyl[(1S)-2-methyl-1-({(2S)-2-[4-(4′-{2-[(8S)-7-((2S)-2-{[(methyloxy)carbonyl]amino}butanoyl)-1,4-dithia-7-azaspiro[4.4]non-8-yl]-1H-imidazol-4-yl}-4-biphenylyl)-1H-imidazol-2-yl]-1-pyrrolidinyl}carbonyl)propyl]carbamate] | 63.1 pM | 3.98 pM |
| COC(=O)NCC(=O)N1CC2(C[C@H]1c1ncc(-c3ccc(-c4ccc(-c5cnc([C@@H]6CCCN6C(=O)[C@@H](NC(=O)OC)C(C)C)[nH]5)cc4)cc3)[nH]1)SCCS2 [Example 14, methyl [(1S)-2-methyl-1-({(2S)-2-[4-(4′-{2-[(8S)-7-({[(methyloxy)carbonyl]amino}acetyl)-1,4-dithia-7-azaspiro[4.4]non-8-yl]-1H-imidazol-4-yl}-4-biphenylyl)-1H-imidazol-2-yl]-1-pyrrolidinyl}carbonyl)propyl]carbamate] | 631 pM | 5.01 pM |
| COC(=O)N[C@H](C(=O)N1CC2(CCOCC2)CC1c1ncc(-c2ccc(-c3ccc(-c4cnc([C@@H]5CCCN5C(=O)[C@@H](NC(=O)OC)C(C)C)[nH]4)cc3)cc2)[nH]1)C(C)C (stereo partly drawn) [Example 15, methyl [(1S)-2-methyl-1-({(2S)-2-[4-(4′-{2-[2-((2S)-3-methyl-2-{[(methyloxy)carbonyl]amino}butanoyl)-8-oxa-2-azaspiro[4.5]dec-3-yl]-1H-imidazol-4-yl}-4-biphenylyl)-1H-imidazol-2-yl]-1-pyrrolidinyl}carbonyl)propyl]carbamate] | 63.1 pM | 15.8 pM |
| COC(=O)N[C@H](C(=O)N1CC2(CCS(=O)(=O)CC2)CC1c1ncc(-c2ccc(-c3ccc(-c4cnc([C@@H]5CCCN5C(=O)[C@@H](NC(=O)OC)C(C)C)[nH]4)cc3)cc2)[nH]1)C(C)C (stereo partly drawn) [Example 16, methyl [(1S)-2-methyl-1-({(2S)-2-[4-(4′-{2-[2-((2S)-3-methyl-2-{[(methyloxy)carbonyl]amino}butanoyl)-8,8-dioxido-8-thia-2-azaspiro[4.5]dec-3-yl]-1H-imidazol-4-yl}-4-biphenylyl)-1H-imidazol-2-yl]-1-pyrrolidinyl}carbonyl)propyl]carbamate] | 398 pM | 39.8 pM |
| COC(=O)N[C@H](C(=O)N1CCC[C@H]1c1ncc(-c2ccc(-c3ccc(-c4cnc([C@@H]5CC6(CCC(F)(F)CC6)CN5C(=O)[C@@H](NC(=O)OC)C(C)C)[nH]4)cc3)cc2)[nH]1)C(C)C [Example 17, methyl [(1S)-1-({(2S)-2-[4-(4′-{2-[8,8-difluoro-2-((2S)-3-methyl-2-{[(methyloxy)carbonyl]amino}butanoyl)-2-azaspiro[4.5]dec-3-yl]-1H-imidazol-4-yl}-4-biphenylyl)-1H-imidazol-2-yl]-1-pyrrolidinyl}carbonyl)-2-methylpropyl]carbamate] | 39.8 pM | 2.51 pM |
| COC(=O)N[C@H](C(=O)N1CC2(CCOCC2)C[C@H]1c1nc(-c2ccc(-c3ccc(-c4cnc([C@@H]5CC6(CCOCC6)CN5C(=O)[C@@H](NC(=O)OC)C(C)C)[nH]4)cc3)cc2)c[nH]1)C(C)C [Example 18, dimethyl (4,4′-biphenyldiylbis{1H-imidazole-4,2-diyl(3S)-8-oxa-2-azaspiro[4.5]decane-3,2-diyl[(2S)-3-methyl-1-oxo-1,2-butanediyl]})biscarbamate] | 20 pM | 12.6 pM |
| COC(=O)N[C@H](C(=O)N1CC2(CCN(C(=O)OC(C)(C)C)CC2)CC1c1ncc(-c2ccc(-c3ccc(-c4cnc([C@@H]5CCCN5C(=O)[C@@H](NC(=O)OC)C(C)C)[nH]4)cc3)cc2)[nH]1)C(C)C (stereo partly drawn) [Example 19, 1,1-dimethylethyl 2-{N-[(methyloxy)carbonyl]-L-valyl}-3-(4-{4′-[2-((2S)-1-{N-[(methyloxy)carbonyl]-L-valyl}-2-pyrrolidinyl)-1H-imidazol-4-yl]-4-biphenylyl}-1H-imidazol-2-yl)-2,8-diazaspiro[4.5]decane-8-carboxylate] | 10000 pM | 39.8 pM |
| COC(=O)N[C@H](C(=O)N1CC2(CCNCC2)CC1c1ncc(-c2ccc(-c3ccc(-c4cnc([C@@H]5CCCN5C(=O)[C@@H](NC(=O)OC)C(C)C)[nH]4)cc3)cc2)[nH]1)C(C)C (stereo partly drawn) [Example 20, methyl [(1S)-2-methyl-1-({(2S)-2-[4-(4′-{2-[2-((2S)-3-methyl-2-{[(methyloxy)carbonyl]amino}butanoyl)-2,8-diazaspiro[4.5]dec-3-yl]-1H-imidazol-4-yl}-4-biphenylyl)-1H-imidazol-2-yl]-1-pyrrolidinyl}carbonyl)propyl]carbamate] | > 31600 pM | 1580 pM |
| COC(=O)N[C@H](C(=O)N1CC2(CCN(C(C)=O)CC2)CC1c1ncc(-c2ccc(-c3ccc(-c4cnc([C@@H]5CCCN5C(=O)[C@@H](NC(=O)OC)C(C)C)[nH]4)cc3)cc2)[nH]1)C(C)C (stereo partly drawn) [Example 21, methyl [(1S)-1-({(2S)-2-[4-(4′-{2-[8-acetyl-2-((2S)-3-methyl-2-{[(methyloxy)carbonyl]amino}butanoyl)-2,8-diazaspiro[4.5]dec-3-yl]-1H-imidazol-4-yl}-4-biphenylyl)-1H-imidazol-2-yl]-1-pyrrolidinyl}carbonyl)-2-methylpropyl]carbamate] | 10000 pM | 200 pM |
| COC(=O)N[C@H](C(=O)N1CC2(CCN(C(=O)OC)CC2)CC1c1ncc(-c2ccc(-c3ccc(-c4cnc([C@@H]5CCCN5C(=O)[C@@H](NC(=O)OC)C(C)C)[nH]4)cc3)cc2)[nH]1)C(C)C (stereo partly drawn) [Example 22, methyl 2-{N-[(methyloxy)carbonyl]-L-valyl}-3-(4-{4′-[2-((2S)-1-{N-[(methyloxy)carbonyl]-L-valyl}-2-pyrrolidinyl)-1H-imidazol-4-yl]-4-biphenylyl}-1H-imidazol-2-yl)-2,8-diazaspiro[4.5]decane-8-carboxylate] | 794 pM | 15.8 pM |
| COC(=O)N[C@H](C(=O)N1CC2(CC1c1ncc(-c3ccc(-c4ccc(-c5cnc([C@@H]6CCCN6C(=O)[C@@H](NC(=O)OC)C(C)C)[nH]5)cc4)cc3)[nH]1)CN(C(=O)OC(C)(C)C)C2)C(C)C (stereo partly drawn) [Example 23, 1,1-dimethylethyl 6-{N-[(methyloxy)carbonyl]-L-valyl}-7-(4-{4′-[2-((2S)-1-{N-[(methyloxy)carbonyl]-L-valyl}-2-pyrrolidinyl)-1H-imidazol-4-yl]-4-biphenylyl}-1H-imidazol-2-yl)-2,6-diazaspiro[3.4]octane-2-carboxylate] | 1260 pM | 10 pM |
